The record followed here is publication PMC7473772 (eLife, 2020).

The target in series [1] is TbAQP2/HAPT1 (Trypanosoma brucei brucei, UniProt Q6ZXT3). Nature of the series: cell-based. In kind it is cell-based.
The subject of series [2] is T. b. brucei 2T1. Kind of series: Drug sensitivity assay (resazurin). It is filed as cell-based. As to conditions: Trypanosoma brucei, 48 h drug + 24 h resazurin, read-out: EC50 control 2T1 AVG. As to the method:
The tbaqp2/tbaqp3 null cells ([Baker et al., 2012]) and tbaqp1-2-3 null cells ([Jeacock et al., 2017]) (both obtained from David Horn, University of Dundee, UK) are derived from the 2T1 strain of T. b. brucei ([Alsford and Horn, 2008]). The CRK12 RNAi cell line^28 was obtained from Dr Tansy Hammarton (University of Glasgow, UK) and is also based on the 2T1 cell line; RNAi expression was induced with 1 µg/ml tetracycline in the medium. All experiments were performed with bloodstream form trypanosomes grown in vitro in HMI-11 medium as described ([Wallace et al., 2002]) at 37°C in a 5% CO2 atmosphere. Cultures were routinely maintained in 10 ml of this medium, being seeded at 5 × 10^4 cells/ml and passed to fresh medium at reaching approximately 3 × 10^6 cells/ml after 48 hr. For transport experiments 150 or 200 ml of culture was seeded at the same density in large flasks and incubated until the culture reached late-log phase.
Drug sensitivity assays for T. b. brucei bloodstream forms used the cell viability dye resazurin (Sigma) and were performed exactly as described ([Wallace et al., 2002]; [Bridges et al., 2007]) in 96-well plates with doubling dilutions of test compound, starting at 100 µM, over 2 rows of the plate (23 dilutions plus no-drug control). Incubation time with test compound was 48 hr (37°C/5% CO2), followed by an additional 24 hr in the presence of the dye.

Series [3] deals with tbaqp2 null (AQP2-KO). Kind of series: Drug sensitivity assay (resazurin). In kind it is cell-based. The following applies: Trypanosoma brucei, read-out: EC50 AQP2-KO AVG, AQP2-KO / tbaqp2 null; 48 h drug + 24 h resazurin. A general note: The colour change of resazurin is a common sign of viable cells or microbes.
Series [4] relates to s427WT bloodstream forms. In kind it is cell-based, Trypanosoma brucei brucei. As to conditions: for 3H-penta: CCCP 20, gramicidin 10, Nigericin 20, NEM 1000, Control = 100.
Series [5] deals with T. b. brucei s427 WT (bloodstream forms). It is filed as cell-based, Trypanosoma brucei brucei.
Series [6] deals with CRK12 RNAi cells. Kind of series: [3H]-suramin uptake after CRK12 RNAi induction (endocytosis defect). In kind it is cell-based, Trypanosoma brucei.

Several values for one entry are separate records, joined by “and”; a condition that tells them apart may be missing. Equal values may be shown once. Where a name gives a salt, the structure may show the parent alone. Read-outs that look alike come from different tables or passages of the source.

Sequence of TbAQP2/HAPT1 (Q6ZXT3 whole entry): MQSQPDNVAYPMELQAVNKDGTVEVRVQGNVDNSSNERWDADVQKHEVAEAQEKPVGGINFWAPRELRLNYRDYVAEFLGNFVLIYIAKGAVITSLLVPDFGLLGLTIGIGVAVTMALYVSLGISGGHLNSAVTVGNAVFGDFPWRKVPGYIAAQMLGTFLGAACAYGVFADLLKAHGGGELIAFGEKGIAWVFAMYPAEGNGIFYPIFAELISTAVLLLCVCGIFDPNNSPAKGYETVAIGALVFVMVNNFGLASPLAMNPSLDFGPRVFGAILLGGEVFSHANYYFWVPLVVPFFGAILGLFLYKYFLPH

Broadly, the Ki is a measure of affinity in units of concentration, obtained from inhibition or displacement. Read a low Ki as a stronger hold on the target. With `N=C(N)c1ccc(OCCCCCOc2ccc(N)cc2)cc1` [RT-36], in series [1], the ΔG0 was -8.68 kcal/mol and the “δ(ΔG^0) PMD” value is 1.48 kcal/mol. In series [1] (Ki), this compound registered a Ki of 430 ± 70 nM. Also, the EC50 in series [2] came to 25700 nM. Moreover, the EC50 in series [3] was found to be 23000 nM.

Consider `N=C(N)c1ccc(OCCCCCOc2ccc(C(=N)N)cc2Cl)c(Cl)c1` [RT-43], for which, in series [1], the ΔG0 was -8.58 kcal/mol, the “δ(ΔG0)” value came to 1.59 kcal/mol and the “δ(ΔG^0) PMD” value came to 1.58 kcal/mol. Also, the Ki in series [1] (Ki) is 510 ± 150 nM. Further, the EC50 in series [2] turned out to be 180 nM. Also, the EC50 in series [3] is 235 nM.

In series [1], `N=C(N)c1ccc(-c2ccc(-c3ccc(C(=N)N)cc3)o2)cc1` [DB75] registered a ΔG0 of -6.02 kcal/mol. Moreover, the “δ(ΔG^0) PMD” value in series [1] was found to be 4.13 kcal/mol. In addition, the values for the Ki in series [1] (HAPT Ki AVG) and in series [1] (Ki) were 38300 nM and 38200 ± 10200 nM, respectively. For the same compound, the EC50 in series [2] turned out to be 50 nM; in series [3], 20 nM.

As to `N=C(N)c1ccc(-c2ccc(-c3ccc(C(=N)N)cc3)[se]2)cc1` [DB1213], in series [1], the ΔG0 was -8.39 kcal/mol and the “δ(ΔG^0) PMD” value was found to be 1.79 kcal/mol. This compound showed a Ki in series [1] (Ki) of 720 ± 170 nM. In series [2], the EC50 was 142 nM. In addition, the EC50 in series [3] is 78 nM.

What is called melting point is the temperature, or range, at which the solid turns liquid. In the case of `COc1ccc(-c2ccc(-c3ccc(C(=N)N)cc3)o2)cc1` (as salt: hydrochloride) [DB607, 4-(5-(4-methoxyphenyl)furan-2-yl) benzimidamide hydrochloride], the melting point was 250 to 252 °C (dec.).

For `Cl.Cl.N=C(N)c1ccc(OCCOc2ccc(C(=N)N)cc2)cc1.O.O` (hydrate or solvate) [Ethamidine, 4,4'-(ethane-1,2-diylbis(oxy))dibenzimidamide dihydrochloride dihydrate], the melting point is 333 °C.

`N=C(N)c1ccc(SCCCCCSc2ccc(C(=N)N)cc2)cc1` [RT-48]: in series [1], the ΔG0 was -7.77 kcal/mol and the “δ(ΔG^0) PMD” value worked out at 2.39 kcal/mol. The Ki in series [1] (Ki) is 2010 ± 860 nM. The EC50 in series [2] was 24 nM. The EC50 in series [3] came out at 165 nM.

As to `CO[C@@H]1C[C@@H](C[C@H]2CC[C@H](C)[C@H]([C@@H](C)C(=O)O)O2)O[C@]2(O[C@](C)([C@H]3CC[C@@](C)([C@@H]4O[C@@H]([C@H]5O[C@@](O)(CO)[C@H](C)C[C@@H]5C)C[C@@H]4C)O3)C[C@H]2C)[C@@H]1C` [nigericin], in series [4], the “Effect of ionophore on pentamidine uptake” value was “strongly inhibited”. The compound also displayed a 3H-penta in series [4] of 44.45. Moreover, the pentamidine uptake was 109.4 percentage of the uninhibited control in series [4] (Nigericin 1, AVG); 108 percentage of the uninhibited control and 110.7 percentage of the uninhibited control in series [4] (Nigericin 1, single repeats); 76.8 percentage of the uninhibited control in series [4] (Nigericin 5, AVG); 61.2 percentage of the uninhibited control in series [4] (Nigericin 10, AVG); 63.9 percentage of the uninhibited control and 61 percentage of the uninhibited control and 53.2 percentage of the uninhibited control and 66.7 percentage of the uninhibited control in series [4] (Nigericin 10, single repeats); 44.5 percentage of the uninhibited control in series [4] (Nigericin 20, AVG). Moreover, the pentamidine uptake in series [4] (Nigericin 20, single repeats) is 41.7 percentage of the uninhibited control and 44.5 percentage of the uninhibited control and 42.9 percentage of the uninhibited control and 48.7 percentage of the uninhibited control. Further, in series [5], the PMF is listed as -46.9.

On to `N=C(N)c1ccc(OCCCCCOc2ccc(C(=N)N)cn2)nc1` [RT-52], for which, in series [1], the ΔG0 is -6.88 kcal/mol and the “δ(ΔG^0) PMD” value is 3.27 kcal/mol. Besides, the inhibition constant (Ki) in series [1] (Ki) is 8840 ± 880 nM. Moreover, the EC50 in series [2] came to 8.8 nM. Further, in series [3], the EC50 turned out to be 51 nM.

Turning to `Cn1c(-c2ccc(-c3ccc(C(=N)N)cc3)o2)nc2ccccc21` (as salt: hydrochloride) [DB960, 4-(5-(1-methyl-1H-benzo[d]imidazol-2-yl)furan-2-yl) benzimidamide dihydrochloride], the melting point is > 290 °C (dec.).

For gramicidin, in series [4] (25 nM [3H]-pentamidine, 1 mM adenosine, 3 min pre-incubation), the “Effect of ionophore on pentamidine uptake” value is on record as “strongly inhibited”. In addition, the 3H-penta in series [4] turned out to be 5.87. For the same compound, the pentamidine uptake in series [4] (Gramicidin 1, AVG) was 23.3 percentage of the uninhibited control; in series [4] (Gramicidin 5, AVG) it was 3.7 percentage of the uninhibited control; in series [4] (Gramicidin 10, AVG) it was 5.9 percentage of the uninhibited control. For the same compound, the PMF in series [5] (CCCP 20, gramicidin 10, Nigericin 20, NEM 1000, Control -95.4) was -13.1.

For the compound `Cl.Cl.c1cc(-c2ccc(-c3ccc(CCC4=NCCN4)cc3)s2)ccc1CCC1=NCCN1` [DB1064, 2,5-bis(4-(2-(4,5-dihydro-1H-imidazol-2-yl)ethyl)phenyl) thiophene dihydrochloride], the melting point was > 225 °C (dec.). In series [1], the ΔG0 was -7.53 kcal/mol and the “δ(ΔG^0) PMD” value amounted to 2.63 kcal/mol. This compound also showed an inhibition constant (Ki) in series [1] (Ki) of 3000 ± 820 nM.

`Cc1ccc(OCCCCCOc2ccc(C(=N)N)cc2)cc1` [CHI/1/72/1, 4-(5-(p-tolyloxy)pentyyloxy)benzimidamide hydrochloride hydrate] returned a ΔG0 in series [1] of -7.62 kcal/mol. Besides, the “δ(ΔG^0) PMD” value in series [1] came out at 2.56 kcal/mol. For the same compound, the Ki in series [1] (HAPT Ki AVG) came to 2600 nM; in series [1] (HAPT Ki, AVG), 2620 nM. For the same compound, the EC50 in series [2] turned out to be 3230 nM; in series [3], 2640 nM.

With `c1cc(C2=NCCN2)ccc1OCCCCCOc1ccc(C2=NCCN2)cc1` [RT-32], in series [1], the ΔG0 is -8.72 kcal/mol and the “δ(ΔG^0) PMD” value amounted to 1.43 kcal/mol. This compound returned a Ki in series [1] (Ki) of 400 ± 80 nM. In addition, in series [2], the EC50 is 400 nM. Moreover, the EC50 in series [3] was determined as 500 nM.

Regarding `CNC(=N)c1ccc(OCCCCCOc2ccc(C(=N)NC)cc2)cc1` [RT-30], in series [1], the ΔG0 was -8.89 kcal/mol and the “δ(ΔG^0) PMD” value is 1.27 kcal/mol. For the same compound, the Ki in series [1] (Ki) came to 300 ± 70 nM. Moreover, the EC50 in series [2] came to 590 nM. Moreover, the EC50 in series [3] came out at 800 nM.

`CC(C)[C@@H]1NC(=O)[C@H](C)OC(=O)[C@@H](C(C)C)NC(=O)[C@@H](C(C)C)OC(=O)[C@H](C(C)C)NC(=O)[C@H](C)OC(=O)[C@@H](C(C)C)NC(=O)[C@@H](C(C)C)OC(=O)[C@H](C(C)C)NC(=O)[C@H](C)OC(=O)[C@@H](C(C)C)NC(=O)[C@@H](C(C)C)OC1=O` [valinomycin]: the pentamidine uptake in series [4] (valinomycin 0.3, AVG) was 106.4 percentage of the uninhibited control; in series [4] (valinomycin 0.3, single repeats), 108.9 percentage of the uninhibited control and 103.8 percentage of the uninhibited control; in series [4] (valinomycin 1, AVG), 91.0 percentage of the uninhibited control; in series [4] (valinomycin 1, single repeats) it was 97.7 percentage of the uninhibited control and 84.2 percentage of the uninhibited control; in series [4] (valinomycin 10, AVG) it was 80.1 percentage of the uninhibited control; in series [4] (valinomycin 10, single repeats), 86.7 percentage of the uninhibited control and 73.5 percentage of the uninhibited control.

In the case of `Cc1ccc(C(=O)Nc2ccc(S(=O)(=O)O)c3cc(S(=O)(=O)O)cc(S(=O)(=O)O)c23)cc1NC(=O)c1cccc(NC(=O)Nc2cccc(C(=O)Nc3cc(C(=O)Nc4ccc(S(=O)(=O)O)c5cc(S(=O)(=O)O)cc(S(=O)(=O)O)c45)ccc3C)c2)c1` [Suramin], in series [6] (AVERAGE of the experiments), the “suramin uptake rate, CRK+tet” value amounted to 0.000346 pmol/1E7 cells/s-1 and the “suramin uptake rate, CRK-tet” value is 0.000523 pmol/1E7 cells/s-1. Besides, in series [6] (single experiments), the “suramin uptake rate, CRK+tet” value is 0.0003125 pmol/1E7 cells/s-1 and 0.0002775 pmol/1E7 cells/s-1 and 0.0003952 pmol/1E7 cells/s-1 and 0.0004343 pmol/1E7 cells/s-1; the “suramin uptake rate, CRK-tet” value was 0.0004923 pmol/1E7 cells/s-1 and 0.0003572 pmol/1E7 cells/s-1 and 0.000635 pmol/1E7 cells/s-1 and 0.0006387 pmol/1E7 cells/s-1. In series [6] (twelve hours after CRK12 RNAi induction), the “Reduction of [3H]-suramin uptake” value is given as 33%.

Compound `Cl.N=C(N)c1ccc(OCCCCOc2ccccc2)cc1.O` (hydrate or solvate) [CHI/1/69/1, 4-(4-Phenoxybutoxy)benzimidamide hydrochloride hydrate] returned a melting point of 134 to 135 °C.

As to `N=C(N)c1ccc(NCCCCCNc2ccc(C(=N)N)cc2)cc1` [RT-50], in series [1], the ΔG0 is -7.1 kcal/mol and the “δ(ΔG^0) PMD” value turned out to be 3.08 kcal/mol. Further, the inhibition constant (Ki) in series [1] (Ki) turned out to be 6270 ± 1300 nM. In series [2], the EC50 was 4.1 nM. Moreover, the EC50 in series [3] came out at 72 nM.
